Source: patent publication US5610174A, “Use of α1A -selective adrenoceptor agonists for the treatment of urinary incontinence” (priority 1995, dated 1997)
pEC50: −log10 of the molar value. Like-named read-outs stand apart in the source and are kept apart here.

What was measured:
Format in all cases: cell-based
[1] = molecular target: T1, human α1A adrenoceptor (Homo sapiens, UniProt P25100); assay: cell-based; conditions: for Emax: read-out: intrinsic activity (i.a.) α1A; for stimulation of inositol phosphate production, α1A: result in words; for EC50: agonist, phosphoinositide accumulation, read-out: pEC50 α1A (converted)
T1 sequence (P25100 1-572): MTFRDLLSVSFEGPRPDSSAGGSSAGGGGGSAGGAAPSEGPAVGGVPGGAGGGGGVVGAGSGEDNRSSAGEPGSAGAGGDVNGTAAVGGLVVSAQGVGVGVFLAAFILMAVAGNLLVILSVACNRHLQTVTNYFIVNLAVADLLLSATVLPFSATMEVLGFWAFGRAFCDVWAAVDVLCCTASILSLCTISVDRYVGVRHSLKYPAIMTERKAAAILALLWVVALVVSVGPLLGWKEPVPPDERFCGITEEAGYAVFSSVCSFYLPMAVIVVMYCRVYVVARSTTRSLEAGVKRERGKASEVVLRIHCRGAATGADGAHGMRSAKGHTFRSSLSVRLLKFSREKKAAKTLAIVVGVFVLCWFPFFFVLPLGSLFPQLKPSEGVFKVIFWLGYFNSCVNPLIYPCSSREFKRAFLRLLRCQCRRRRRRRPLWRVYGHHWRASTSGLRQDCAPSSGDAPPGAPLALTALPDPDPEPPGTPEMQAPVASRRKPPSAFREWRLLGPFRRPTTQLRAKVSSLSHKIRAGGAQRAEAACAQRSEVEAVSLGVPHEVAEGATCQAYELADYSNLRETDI
Experimental: (§1) α1 -Adrenoceptor-Mediated Phosphoinositide Accumulation in Cultured Cell Lines
(§2) The agonist activity of test compounds was assayed by measuring their ability to generate phosphoinositide production in cells stably transfected with each of the three cloned human α1 -adrenoceptor subtypes. Cells were plated in 96-well plates and grown to confluence. The day before the assay the growth medium was changed to 100 μl of medium containing 1% serum and 0.5 μCi [^3 H] myo-inositol, and the plates were incubated overnight in a CO2 incubator (5% CO2 at 37° C.). Immediately before the assay, the medium was removed and replaced by 200 μl of PBS containing 10 mM LiCl, and the cells were equilibrated with the new medium for 20 min. During this interval cells were also equilibrated with the antagonist, added as 10 μl aliquot of a 20-fold concentrated solution in PBS.
(§3) The [^3 H] inositol-phosphate (IP) accumulation was started by adding 10 μl of a solution containing the agonist. To the first well 10 μl were added to measure basal accumulation, and 11 different concentrations of agonist were assayed in the following 11 wells of each plate row. All assays were performed in duplicate by repeating the same additions in two consecutive plate rows. The plates were incubated in a CO2 incubator for 1 hr. The reaction was terminated by adding 15 μl of 50% (v/v) trichloroacetic acid (TCA), followed by a 40 min incubation at 4° C.
(§4) After neutralizing TCA with 40 μl of 1 M Tris, the content of the wells was transferred to a Multiscreen HV filter plate (Millipore) containing Dowex AG1-X8 (200-400 mesh, formate form). The filter plates were prepared adding 200 μl of Dowex AG1-X8 suspension (50% v/v, water:resin) to each well. The filter plates were placed on a vacuum manifold to wash or eluted the resin bed. Each well was washed 2 times with 200 μl of water, followed by 2×200 μ of 5 mM sodium tetraborate/60 mM ammonium formate. The [3H] IPs were eluted into empty 96-well plates with 200 μl of 1.2 M ammonium formate/0.1 formic acid. The content of the wells was added to 3 mls of scintillation cocktail, and the radioactivity was determined by liquid scintillation counting.

[2] = molecular target: T2, human α1C adrenoceptor (Homo sapiens, UniProt P35348); assay: cell-based; conditions: for Emax: read-out: intrinsic activity (i.a.) α1C; for EC50: agonist, phosphoinositide accumulation, read-out: pEC50 α1C (converted)
T2 sequence (P35348 1-466): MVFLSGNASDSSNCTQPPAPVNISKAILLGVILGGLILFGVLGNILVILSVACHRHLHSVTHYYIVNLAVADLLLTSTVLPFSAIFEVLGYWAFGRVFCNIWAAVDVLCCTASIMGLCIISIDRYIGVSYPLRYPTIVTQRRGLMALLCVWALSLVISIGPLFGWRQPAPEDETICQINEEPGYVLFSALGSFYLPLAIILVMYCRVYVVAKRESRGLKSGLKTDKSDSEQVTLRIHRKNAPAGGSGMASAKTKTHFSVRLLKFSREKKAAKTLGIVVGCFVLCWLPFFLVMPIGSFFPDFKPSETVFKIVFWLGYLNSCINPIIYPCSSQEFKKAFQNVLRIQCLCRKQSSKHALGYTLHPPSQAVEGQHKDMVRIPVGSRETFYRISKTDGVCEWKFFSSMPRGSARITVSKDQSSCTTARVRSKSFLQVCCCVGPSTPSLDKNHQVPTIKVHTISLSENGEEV
Experimental: as §1, §2, §3, §4

[3] = molecular target: T3, human α2C adrenoceptor (Homo sapiens, UniProt P18825); assay: Inhibition of forskolin stimulated adenylyl cyclase, α2C; conditions: for Emax: read-out: intrinsic activity (i.a.) α2C; for EC50: agonist, inhibition of forskolin stimulated adenylyl cyclase, read-out: pEC50 α2C (converted)
T3 construct: expressed in transfected cells; host or cells: LM(tk-)
T3 sequence (P18825 1-462): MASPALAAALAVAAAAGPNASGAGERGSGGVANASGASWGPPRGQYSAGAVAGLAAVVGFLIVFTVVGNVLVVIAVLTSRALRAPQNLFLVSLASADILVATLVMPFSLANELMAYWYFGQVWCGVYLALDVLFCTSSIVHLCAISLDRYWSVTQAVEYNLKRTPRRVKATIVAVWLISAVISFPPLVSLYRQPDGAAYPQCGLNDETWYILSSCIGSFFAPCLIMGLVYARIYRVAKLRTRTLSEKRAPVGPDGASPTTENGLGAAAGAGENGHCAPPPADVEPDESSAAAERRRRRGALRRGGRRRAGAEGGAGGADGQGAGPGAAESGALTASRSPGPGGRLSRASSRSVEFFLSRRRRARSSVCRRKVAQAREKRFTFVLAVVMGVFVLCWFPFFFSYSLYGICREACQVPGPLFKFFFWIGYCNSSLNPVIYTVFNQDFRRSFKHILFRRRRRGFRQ
Experimental: α2 -Adrenoceptor-Mediated Inhibition of Forskolin Stimulated Adenylyl Cyclase
The agonist activity of test compounds was assayed by measuring their ability to inhibit adenylyl cyclase in cells stably transfected with each of the three cloned human α2 -adrenoceptors. LM(tk-) cells expressing the α2A - or the α2C -, as well as Y1 cells expressing the α2B -adrenoceptor were used. […] The formation of cyclic AMP was measured in cultures incubated with DMEM containing 1 mM theophylline. Twelve concentrations of the test compounds (from 10 pM to 100 μM) were added to the incubation medium and incubated at 37° C. for 20 min. Following this incubation step, 10 μM forskolin was added to stimulate the formation of cyclic AMP, and the cultures were incubated for another 10 min. The reaction was stopped by replacing the incubation medium with 100 mM HCl . The intracellular levels of cyclic AMP were measured by radioimmunoassay. The data from concentration-response curves was fitted to a four-parameter logistic equation, by non-linear regression analysis, to determine the pEC50 and intrinsic activity.

[4] = relative to reference full agonist (e.g., norepinephrine = unity)

Row | Compound | Emax [1] [%] | Emax [3] [%] | EC50 [2] [µM] | Emax [2, 4] [%] | pEC50 [1] | pEC50 [3] | also measured
1 | CNCCc1ccc(O)c(NS(C)(=O)=O)c1 [SK&F 102652] | 10 | 80 |  |  |  |  | stimulation of inositol phosphate production, α1A [1]: virtually inactive; stimulation of inositol phosphate production, α1C [2]: fully stimulate; Emax [2]: 110%
2 | COc1ccc(SC)c2c1C[C@@H]1[C@@H](C2)OCCN1C (relative stereo) [SDZ NVI-085, (±)-trans-4-Methyl-6-methoxy-9-thiomethoxy-3,4,4a, 5,10,10a-hexahydro-2H-naphtho[2,3-b][1,4]oxazine] | 0 | 0 | 0.398 | 110 |  |  | EC50 [1]: > 100 µM; EC50 [3]: > 100 µM
3 | COc1ccc(OC)c(C(O)CN)c1 (racemic) [ST-1059, (±)-2-Amino-1-(2, 5 dimethoxyphenyl) ethanol] | 10 | 50 |  | 90 | 5.80 | 6.30 | pEC50 [2]: 5.70
4 | CNC[C@H](O)c1cccc(O)c1 [(-)-phenylephrine] |  |  |  | 90 |  |  | Emax [1, 4]: 70%; intrinsic activity (i.a.) α2C [3, 4]: 0.9
5 | CS(=O)(=O)Nc1c(O)ccc2c1CCCC2C1=NCCN1 (racemic) [Compound A-61603, (±)-N-[5-(4,5-Dihydro-1H-imidazol-2-yl)-2-hydroxy-5,6,7,8-tetra-hydronaphthalen-1-yl]methanesulfonamide] |  |  |  | 120 |  |  | EC50 [1]: 25.1 µM; Emax [1, 4]: 10%; stimulation of inositol phosphate production, α1A [1]: virtually inactive; stimulation of inositol phosphate production, α1C ([2]; result in words): fully stimulate; EC50 [3]: 0.02 µM; Emax [3, 4]: 90%
6 | CN[C@@H](C)[C@H](O)c1ccccc1 [(-)-ephedrine] | 10 | 0 | 100 | 10 | 4.00 | 5.00 | 
7 | C[C@H](N)[C@H](O)c1ccccc1 [(-)-norephedrine] | 30 | 60 | 50.1 | 40 | 4.80 | 6.90 | 
